Test results taken from paper PMC3152332 (Nucleic Acids Research, 2011).

Legend:
Ec-Mtq2-Trm112 = Ec-Mtq2-Trm112 (Encephalitozoon cuniculi, UniProt Q8SRR4); conditions: SAM co-purified with the complex; contacts only Mtq2 residues
yeast Mtq2-Trm112 = yeast Mtq2-Trm112 (Saccharomyces cerevisiae, UniProt Q03920); conditions: labelled compound; eRF1, eRF3 and GTP present
Hs-Mtq2 + Hs-Trm112 = Hs-Mtq2 + Hs-Trm112 (Homo sapiens, UniProt Q9Y5N5); conditions: labelled compound; with Hs-Trm112; methylation buffer, 30 °C, 15 min
Hs-Mtq2 + Hs-Trm112, sequence (Q9Y5N5 whole entry): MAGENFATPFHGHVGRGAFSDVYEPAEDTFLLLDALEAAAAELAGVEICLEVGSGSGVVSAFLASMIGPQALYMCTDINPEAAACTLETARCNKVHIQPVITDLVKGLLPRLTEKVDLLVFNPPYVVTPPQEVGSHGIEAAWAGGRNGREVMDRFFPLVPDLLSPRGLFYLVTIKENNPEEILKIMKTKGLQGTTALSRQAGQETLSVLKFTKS
Hs-Mtq2 + Hs-Trm112, sequence (Q9UI30 whole entry partner): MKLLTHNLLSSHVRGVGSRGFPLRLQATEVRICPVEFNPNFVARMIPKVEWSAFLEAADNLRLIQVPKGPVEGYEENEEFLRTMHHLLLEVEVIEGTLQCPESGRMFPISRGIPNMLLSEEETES

yeast Mtq2-Trm112, sequence (Q03920 whole entry): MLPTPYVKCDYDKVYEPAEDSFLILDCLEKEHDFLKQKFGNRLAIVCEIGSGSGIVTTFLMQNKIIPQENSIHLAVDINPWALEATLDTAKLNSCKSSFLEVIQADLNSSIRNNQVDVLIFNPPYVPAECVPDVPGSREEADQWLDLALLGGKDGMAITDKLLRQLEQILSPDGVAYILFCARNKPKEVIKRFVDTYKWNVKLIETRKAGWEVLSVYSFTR
yeast Mtq2-Trm112, sequence (P53738 whole entry partner): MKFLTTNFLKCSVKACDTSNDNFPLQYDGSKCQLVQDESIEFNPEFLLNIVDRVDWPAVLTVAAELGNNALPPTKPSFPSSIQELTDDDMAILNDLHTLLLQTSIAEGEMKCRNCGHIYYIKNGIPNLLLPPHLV
Ec-Mtq2-Trm112, sequence (Q8SRR4 1-164): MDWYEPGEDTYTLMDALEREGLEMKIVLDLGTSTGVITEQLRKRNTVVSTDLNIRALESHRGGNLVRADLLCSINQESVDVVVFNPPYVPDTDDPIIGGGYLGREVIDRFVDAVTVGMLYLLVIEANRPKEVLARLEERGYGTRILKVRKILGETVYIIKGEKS
Ec-Mtq2-Trm112, sequence (Q8SUP0 1-125 partner): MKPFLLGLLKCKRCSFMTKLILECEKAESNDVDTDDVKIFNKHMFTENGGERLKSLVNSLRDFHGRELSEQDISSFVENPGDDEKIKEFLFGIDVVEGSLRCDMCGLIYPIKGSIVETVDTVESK

C[S+](CC[C@H](N)C(=O)O)C[C@H]1O[C@@H](n2cnc3c(N)ncnc32)[C@H](O)[C@@H]1O (stereo partly drawn) [SAM]
X-ray crystal structure, 2.1 Å (Ec-Mtq2-Trm112): an unambiguous electron density corresponding to a SAM molecule is present in its expected binding site | [3H]SAM methylation of eRF1, initial velocity (yeast Mtq2-Trm112): incubating eRF1, eRF3 and GTP with Mtq2-Trm112 complex in presence of [3H] SAM | SAM-binding activity (Hs-Mtq2 + Hs-Trm112): Incubation of this protein with an equimolar amount of Hs-Trm112 resulted in restoration of SAM-binding activity
